Data from patent US3968102A, “S-substituted-2-thioadenosines” (Kohjin Co., Ltd., priority 1974, dated 1976).
Read-outs that look alike come from different tables or passages of the source.

How the values were obtained:
[1] = system: rabbit platelet-rich plasma (ADP-induced platelet aggregation); experiment: Inhibition of 10^-5 M ADP-induced platelet aggregation in rabbit platelet-rich plasma; format: cell-based; conditions: for inhibition at 100 µM / inhibition at 10 µM: Oryctolagus cuniculus, Platelet, 0.05 h; for inhibition at 100 µM: read-out: Inhibition (%) 10^-5 M ADP-Induced Aggregation; for inhibition at 10 µM: compound 10^-5 M
[2] = system: platelet aggregation; conditions: cited from earlier work
[3] = system: rabbit platelet-rich plasma (collagen-induced platelet aggregation); experiment: Inhibition of collagen-induced platelet aggregation in rabbit platelet-rich plasma; format: cell-based; conditions: 3 minute incubation; for inhibition at 100 µM / inhibition at 10 µM: Oryctolagus cuniculus, Platelet, 0.05 h; for inhibition at 10 µM: compound 10^-5 M
[4] = pKa; format: physicochemical
[5] = system: platelet-rich plasma (platelet aggregation); experiment: Persistence of platelet aggregation inhibitory activity on incubation with platelet-rich plasma; format: cell-based, rabbit
Experimental: The platelet aggregation inhibitory activity of representative compounds of the formula (I) were determined in terms of the percent inhibitory activity against 10-^5 M adenosine-5'-diphosphate (hereinafter referred to as "ADP")-induced or collagen-induced platelet aggregation in rabbit platelet-rich plasma according to the procedure described by G. V. R. Born and M. J. Cross in Journal of Physiology, Vol. 168, p. 178 (1963). […]

[6] = compound 10^-4 M, solvent PSS, 3 minute incubation
[7] = J. Med. Chem., Vol. 16, No. 12, 1381-1388 (1973)
[8] = compound 10^-4 M, solvent DMSO, 3 minute incubation
[9] = solvent DMSO, 3 minute incubation

| Structure (SMILES) | inhibition at 100 µM [1, 6] [%] | inhibition at 100 µM ([3]; compound 10^-4 M, solvent PSS) [%] | inhibition at 100 µM ([3]; compound 10^-4 M, solvent DMSO) [%] | inhibition at 100 µM [1, 8] [%] | other results |
| --- | --- | --- | --- | --- | --- |
| Nc1ncnc2c1ncn2[C@@H]1O[C@H](COP(=O)(O)O)[C@@H](O)[C@H]1O [Ammonium Adenosine-5'-monophosphate, reference compound] | 5 | – | – | – | – |
| Nc1nc(S)nc2c1ncn2[C@@H]1O[C@H](CO)[C@@H](O)[C@H]1O [2-Thioadenosine] | 10 | 36 | – | – | inhibitory activity in ADP-induced platelet aggregation [2, 7]: only a weak inhibitory activity; inhibitory activity in collagen-induced platelet aggregation [2, 7]: only a weak inhibitory activity; pKa [4]: 7.8 |
| CSc1nc(N)c2ncn([C@@H]3O[C@H](COP(=O)(O)O)[C@@H](O)[C@H]3O)c2n1 [2-methylthioadenosine-5'-monophosphate] | – | – | – | – | platelet aggregation inhibitory activity (prior art) ([2]; in words): only a weak platelet aggregation inhibitory activity |
| Nc1nc(SCCCO)nc2c1ncn2[C@@H]1O[C@H](CO)[C@@H](O)[C@H]1O [2-(γ-Hydroxypropyl)thioadenosine] | 58 | 52 | – | – | – |
| Nc1nc(Sc2cccnc2)nc2c1ncn2[C@@H]1O[C@H](CO)[C@@H](O)[C@H]1O [2-(β-Pyridyl)thioadenosine] | – | – | – | – | Inhibition (%) Collagen-Induced Aggregation ([3]; compound 10^-4 M, solvent PSS): 52%; Inhibition (%) 10^-5 M ADP-Induced Aggregation [1, 6]: 61% |
| Nc1ncnc2c1ncn2[C@@H]1O[C@H](CO)[C@@H](O)[C@H]1O [Adenosine] | 80 | 71 | 68 | 76 | inhibitory activity after 60 minutes of incubation with the platelet-rich plasma ([5]; 60 minutes of incubation): disappears completely after 60 minutes of incubation; inhibitory activity (control) ([5]; in words, from Table 1): fairly potent inhibitory activity; inhibition at 10 µM ([3]; solvent PSS): 51%; inhibition at 10 µM ([1]; solvent PSS, 3 minute incubation): 58% |
| Nc1nc(SCCO)nc2c1ncn2[C@@H]1O[C@H](CO)[C@@H](O)[C@H]1O [2-(β-Hydroxyethyl)thioadenosine] | 52 | 30 | – | – | – |
| Nc1nc(Sc2ccc([N+](=O)[O-])cc2)nc2c1ncn2[C@@H]1O[C@H](CO)[C@@H](O)[C@H]1O [2-(p-Nitrophenyl)thioadenosine] | – | – | 81 | 92 | – |
| Nc1nc(SC2CC3CCC2C3)nc2c1ncn2[C@@H]1O[C@H](CO)[C@@H](O)[C@H]1O (stereo partly drawn) [2-(β-Norbornyl)thioadenosine] | – | – | 69 | 89 | inhibition at 10 µM ([3]; solvent DMSO): 51%; inhibition at 10 µM [1, 9]: 62% |
| CSc1nc(N)c2ncn([C@@H]3O[C@H](COP(=O)(O)O)[C@@H](O)[C@H]3O)c2n1 [Ammonium 2-Methylthioadenosine-5'-monophosphate, reference compound] | – | – | – | – | inhibition at 100 µM [1]: 35% |
| Nc1nc(SC2C3CC4CC(C3)CC2C4)nc2c1ncn2[C@@H]1O[C@H](CO)[C@@H](O)[C@H]1O (stereo partly drawn) [2-(β-Adamantyl)thioadenosine] | – | – | 72 | 95 | inhibition at 10 µM ([3]; solvent DMSO): 61%; inhibition at 10 µM [1, 9]: 72% |
| Nc1nc(Sc2ccccc2)nc2c1ncn2[C@@H]1O[C@H](CO)[C@@H](O)[C@H]1O [2-Phenylthioadenosine] | – | – | 82 | 98 | inhibition at 10 µM ([3]; solvent DMSO): 58%; inhibition at 10 µM [1, 9]: 62% |
| Cc1ccccc1Sc1nc(N)c2ncn([C@@H]3O[C@H](CO)[C@@H](O)[C@H]3O)c2n1 [2-(o-Tolyl)thioadenosine] | – | – | – | – | inhibition at 10 µM ([3]; solvent DMSO): 57%; inhibition at 10 µM [1, 9]: 61% |
| CCCSc1nc(N)c2ncn([C@@H]3O[C@H](CO)[C@@H](O)[C@H]3O)c2n1 [2-Propylthioadenosine, reference compound] | 16 | – | – | – | – |
| CSc1nc(N)c2ncn([C@@H]3O[C@H](CO)[C@@H](O)[C@H]3O)c2n1 [2-Methylthioadenosine, reference compound] | 12 | 25 | – | – | – |
